Entries after “also recorded” stand apart in the source; their conditions may differ.
Assays:
[1] = test system: human embryonic stem cell line H1; assay: Immunostaining for HB9 and NKX6.1 at Stage 6, control vs T3 treated cultures (Example 2); assay type: cell-based
Protocol: (§1) All primers were purchased from Applied Biosystems.
(§2) Cultures were differentiated into cells expressing markers characteristic of pancreatic endoderm/endocrine precursor cells by the protocol outlined below. • a. […] SD208 is 2-(5-Chloro-2-fluorophenyl)pteridin-4-yl]pyridin-4-yl-amine) having the structure of formula I, and disclosed in Molecular Pharmacology 2007, 72:152-161. SD208 is a 2,4-disubstituted pteridine, ATP-competitive inhibitor of the TGF-βR I kinase.
(§3) In some cultures, 1 μM T3 (T6397, Sigma, MO) was added at Stages 4 through 6. At the end of Stages 4 through 6, the control and treated cultures were analyzed by FACS and immunostaining. Furthermore, mRNA was collected for the control and treated cultures at Stages 2 through 6.

[2] = test system: human embryonic stem cell line H1; assay: Real-time PCR of marker genes in H1 cells differentiated as in Example 2, T3 added at Stages 4 through 6; assay type: cell-based
Protocol: as §1, §2, §3

[3] = test system: human embryonic stem cell line H1; assay: Immunostaining for NKX6.1 and HB9 at Stage 6 day 6, T3 dose response (Example 4); assay type: cell-based; conditions: 0-1000 nM T3 at Stages 5 and 6, dose dependent
Text: as §1
Forty-eight hours post-seeding, cultures were washed in incomplete PBS (phosphate buffered saline without Mg or Ca). Cultures were differentiated into cells expressing markers characteristic of pancreatic endoderm/endocrine precursor cells by the protocol outlined below. • a.

[4] = T3 vs T4; cited from earlier work
[5] = in the blood; cited from earlier work
[6] = 1 μM T3 added at Stages 4 through 6, real-time PCR
[7] = 1 μM T3 added at Stages 4 through 6, real-time PCR vs control
[8] = 1 μM T3 addition, real-time PCR

| Structure (SMILES) | number of HB9 positive cells ([1]; Stage 6, T3 treated group vs control) | number of NKX6.1 positive cells showing expression of HB9 ([1]; T3 treated cultures) | insulin expression ([2]; 1 μM T3 added at Stages 4 through 6, at Stage 5, real-time PCR) | NKX2.2 expression [2, 6] | NKX6.1 expression [2, 6] | PDX1 expression [2, 6] | ghrelin expression [2, 7] | glucagon expression [2, 7] | somatostatin expression [2, 7] | CDX2 (intestine marker) expression [2, 8] | SOX2 (stomach marker) expression [2, 8] | albumin (liver marker) expression [2, 8] | number of HB9 positive cells in the NKX6.1 positive pancreatic endoderm precursor cells [3] | potency relative to T4 [4] | half-life relative to T3 [5] |
| --- | --- | --- | --- | --- | --- | --- | --- | --- | --- | --- | --- | --- | --- | --- | --- |
| N[C@@H](Cc1cc(I)c(Oc2ccc(O)c(I)c2)c(I)c1)C(=O)O [T3, triiodothyronine] | increases; also recorded: significant increase | increased number | moderately increasing | significantly decreased | apparently not affecting | apparently not affecting | significantly down regulated | significantly down regulated | significantly down regulated | not affecting | suppressed | suppressed | significantly enhanced | three to four times more potent than T4 |  |
| N[C@@H](Cc1cc(I)c(Oc2cc(I)c(O)c(I)c2)c(I)c1)C(=O)O [T4, thyroxine] |  |  |  |  |  |  |  |  |  |  |  |  |  |  | longer half-life than T3 |

Source: patent publication US10947511B2, “Differentiation of human embryonic stem cells into pancreatic endocrine cells using thyroid hormone and/or alk5, an inhibitor of tgf-beta type 1 receptor” (Janssen Biotech, Inc., priority 2012, dated 2021)
